From ChEMBL document CHEMBL1154336, “The discovery and optimisation of benzazepine sulfonamide and sulfones as potent agonists of the motilin receptor” (Bioorg Med Chem Lett, 2009)
pEC50, pIC50, pKi: −log10 of the molar value.

Tests used:
Motilin receptor = Motilin receptor (Homo sapiens, UniProt O43193); assay: Agonist activity at human recombinant motilin receptor expressed in CHO cells by FLIPR assay; type: functional, cell-based
[1] = target: T1, Growth hormone secretagogue receptor type 1 (Homo sapiens, UniProt Q92847); assay: Agonist activity at human ghrelin receptor; type: functional
T1 sequence (Q92847 whole entry): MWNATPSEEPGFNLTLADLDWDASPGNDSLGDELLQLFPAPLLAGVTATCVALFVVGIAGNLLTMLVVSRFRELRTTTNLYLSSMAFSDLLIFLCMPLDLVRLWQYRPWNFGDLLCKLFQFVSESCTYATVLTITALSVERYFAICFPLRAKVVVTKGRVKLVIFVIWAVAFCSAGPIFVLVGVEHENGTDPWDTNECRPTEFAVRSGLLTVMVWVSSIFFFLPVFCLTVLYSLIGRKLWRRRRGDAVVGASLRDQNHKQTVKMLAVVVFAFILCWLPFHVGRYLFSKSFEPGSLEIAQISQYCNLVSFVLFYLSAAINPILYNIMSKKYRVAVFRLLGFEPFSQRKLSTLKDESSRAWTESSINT

Cytochrome P450 2D6 = Cytochrome P450 2D6 (Homo sapiens, UniProt P10635); assay: Inhibition of human recombinant CYP2D6; type: ADME
Cytochrome P450 2D6, sequence (P10635 whole entry): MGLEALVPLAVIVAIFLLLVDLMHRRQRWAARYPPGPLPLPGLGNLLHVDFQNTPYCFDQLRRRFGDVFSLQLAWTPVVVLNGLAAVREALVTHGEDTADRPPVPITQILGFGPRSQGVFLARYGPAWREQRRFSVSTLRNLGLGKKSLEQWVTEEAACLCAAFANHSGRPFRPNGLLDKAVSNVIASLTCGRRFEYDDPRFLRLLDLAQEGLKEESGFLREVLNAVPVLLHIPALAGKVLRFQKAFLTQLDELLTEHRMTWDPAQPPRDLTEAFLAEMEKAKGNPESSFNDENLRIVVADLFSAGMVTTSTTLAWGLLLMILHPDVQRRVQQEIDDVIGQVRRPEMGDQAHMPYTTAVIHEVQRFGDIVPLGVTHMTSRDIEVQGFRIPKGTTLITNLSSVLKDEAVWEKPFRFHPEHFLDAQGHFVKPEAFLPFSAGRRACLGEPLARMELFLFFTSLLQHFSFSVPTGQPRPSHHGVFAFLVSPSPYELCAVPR

Liver microsomes [2] = assay: Intrinsic clearance in human liver microsomes after 30 mins; type: ADME, Microsome; settings: 0.5 h
Liver microsomes [3] = assay: Intrinsic clearance in rat liver microsomes after 30 mins; type: ADME, Microsome; settings: 0.5 h
[4] = target: T1, Growth hormone secretagogue receptor type 1; assay: Intrinsic activity at human ghrelin receptor relative to ghrelin
Cytochrome P450 2C9 = Cytochrome P450 2C9 (Homo sapiens, UniProt P11712); assay: Inhibition of human recombinant CYP2C9; type: ADME
Cytochrome P450 2C9, sequence (P11712 whole entry): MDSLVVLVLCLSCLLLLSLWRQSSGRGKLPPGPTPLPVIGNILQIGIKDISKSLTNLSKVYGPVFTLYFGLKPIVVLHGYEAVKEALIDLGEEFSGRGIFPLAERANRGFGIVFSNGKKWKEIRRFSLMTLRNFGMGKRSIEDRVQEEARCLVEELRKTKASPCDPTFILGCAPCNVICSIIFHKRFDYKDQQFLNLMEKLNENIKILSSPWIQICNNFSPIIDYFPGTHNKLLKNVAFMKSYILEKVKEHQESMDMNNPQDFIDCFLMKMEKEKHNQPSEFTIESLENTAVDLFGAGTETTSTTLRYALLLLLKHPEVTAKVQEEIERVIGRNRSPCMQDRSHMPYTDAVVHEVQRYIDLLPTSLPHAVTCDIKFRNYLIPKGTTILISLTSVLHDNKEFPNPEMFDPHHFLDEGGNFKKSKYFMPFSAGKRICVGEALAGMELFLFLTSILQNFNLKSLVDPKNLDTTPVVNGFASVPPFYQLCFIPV

D(3) dopamine receptor = D(3) dopamine receptor (Homo sapiens, UniProt P35462); assay: Agonist activity at dopamine D3 receptor; type: functional
D(3) dopamine receptor, sequence (P35462 whole entry): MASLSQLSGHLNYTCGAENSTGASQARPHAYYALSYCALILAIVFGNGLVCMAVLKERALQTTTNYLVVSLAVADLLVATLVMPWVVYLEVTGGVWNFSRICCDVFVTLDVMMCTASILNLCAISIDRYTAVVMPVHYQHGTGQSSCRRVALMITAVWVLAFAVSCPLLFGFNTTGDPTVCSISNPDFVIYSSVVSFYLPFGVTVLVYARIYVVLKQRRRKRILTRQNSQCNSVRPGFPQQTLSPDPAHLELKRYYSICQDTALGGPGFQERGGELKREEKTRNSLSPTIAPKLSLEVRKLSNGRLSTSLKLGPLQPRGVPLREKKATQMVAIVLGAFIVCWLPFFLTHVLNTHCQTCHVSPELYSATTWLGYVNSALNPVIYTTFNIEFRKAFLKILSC

D(2) dopamine receptor = D(2) dopamine receptor (Homo sapiens, UniProt P14416); assay: Agonist activity at dopamine D2 receptor; type: functional
D(2) dopamine receptor, sequence (P14416 whole entry): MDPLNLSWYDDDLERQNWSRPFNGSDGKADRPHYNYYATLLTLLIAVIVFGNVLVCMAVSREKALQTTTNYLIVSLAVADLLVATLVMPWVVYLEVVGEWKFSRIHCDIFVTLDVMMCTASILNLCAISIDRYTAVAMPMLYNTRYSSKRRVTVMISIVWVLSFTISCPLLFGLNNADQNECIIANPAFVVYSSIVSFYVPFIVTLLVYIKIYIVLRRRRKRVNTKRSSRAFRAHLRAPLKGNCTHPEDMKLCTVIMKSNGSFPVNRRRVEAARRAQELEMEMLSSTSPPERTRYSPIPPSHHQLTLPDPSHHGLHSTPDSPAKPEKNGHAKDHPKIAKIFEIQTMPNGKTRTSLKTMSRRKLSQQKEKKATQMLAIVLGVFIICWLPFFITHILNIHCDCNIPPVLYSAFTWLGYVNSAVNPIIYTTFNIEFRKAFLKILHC

Cytochrome P450 3A4 [5] = target: T2, Cytochrome P450 3A4 (Homo sapiens, UniProt P08684); assay: Inhibition of human recombinant CYP3A4 using diethoxyfluorescein as substrate; type: ADME
T2 sequence (P08684 whole entry): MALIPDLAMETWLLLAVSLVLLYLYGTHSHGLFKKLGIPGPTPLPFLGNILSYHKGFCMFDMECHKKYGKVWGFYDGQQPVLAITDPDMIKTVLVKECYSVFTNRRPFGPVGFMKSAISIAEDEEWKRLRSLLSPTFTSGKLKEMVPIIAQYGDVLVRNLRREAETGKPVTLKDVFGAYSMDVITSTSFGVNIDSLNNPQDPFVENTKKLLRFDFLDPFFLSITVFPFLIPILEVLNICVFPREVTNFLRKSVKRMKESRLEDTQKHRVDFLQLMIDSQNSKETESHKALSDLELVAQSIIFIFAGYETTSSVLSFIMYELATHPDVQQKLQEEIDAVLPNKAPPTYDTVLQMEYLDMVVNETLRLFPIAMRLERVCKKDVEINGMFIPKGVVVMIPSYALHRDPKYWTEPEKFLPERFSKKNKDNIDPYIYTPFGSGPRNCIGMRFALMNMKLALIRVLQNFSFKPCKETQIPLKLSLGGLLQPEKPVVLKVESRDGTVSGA

[6] = target: 5-hydroxytryptamine receptor 6 (Homo sapiens, UniProt P50406); assay: Agonist activity at 5HT6 receptor; type: functional
5-hydroxytryptamine receptor 6, sequence (P50406 whole entry): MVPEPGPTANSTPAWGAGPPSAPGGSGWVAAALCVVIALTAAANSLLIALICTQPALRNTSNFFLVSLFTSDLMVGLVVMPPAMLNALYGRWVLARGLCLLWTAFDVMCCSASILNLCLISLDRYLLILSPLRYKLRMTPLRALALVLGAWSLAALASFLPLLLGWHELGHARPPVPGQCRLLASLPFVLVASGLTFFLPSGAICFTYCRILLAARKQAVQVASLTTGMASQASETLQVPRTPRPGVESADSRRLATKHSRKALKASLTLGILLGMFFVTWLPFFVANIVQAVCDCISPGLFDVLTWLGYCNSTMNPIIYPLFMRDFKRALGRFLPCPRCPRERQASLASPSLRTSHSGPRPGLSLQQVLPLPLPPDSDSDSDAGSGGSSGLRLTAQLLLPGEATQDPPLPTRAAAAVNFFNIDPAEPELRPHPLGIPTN

Cytochrome P450 3A4 [7] = target: T2, Cytochrome P450 3A4; assay: Inhibition of human recombinant CYP3A4 using 7-{3-(4-phenylpiperazin-1-ylmethyl)benzyl}resorufin as substrate; type: ADME
Stomach = assay: Increase in electric field stimulated contractile response in New Zealand White rabbit gastric antrum at 1 uM after 60 mins; type: functional; settings: Oryctolagus cuniculus, 1 h

Motilin receptor, sequence (O43193 whole entry): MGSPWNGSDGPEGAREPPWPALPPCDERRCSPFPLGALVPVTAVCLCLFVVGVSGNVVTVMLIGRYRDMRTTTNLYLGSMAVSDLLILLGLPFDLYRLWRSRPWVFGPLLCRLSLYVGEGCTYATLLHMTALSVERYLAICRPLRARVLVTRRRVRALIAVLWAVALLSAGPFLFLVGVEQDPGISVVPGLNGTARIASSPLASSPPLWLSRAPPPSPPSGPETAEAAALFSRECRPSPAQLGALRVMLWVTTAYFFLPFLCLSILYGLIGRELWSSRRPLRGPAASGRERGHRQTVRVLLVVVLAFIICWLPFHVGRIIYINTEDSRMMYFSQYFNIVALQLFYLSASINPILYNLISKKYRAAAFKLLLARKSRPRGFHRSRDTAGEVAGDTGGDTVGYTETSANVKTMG

| Structure (SMILES) | pEC50 (Motilin receptor) | pEC50 [1] | other results |
| --- | --- | --- | --- |
| O=S(=O)(Cc1ccc2c(c1)CCNCC2)c1ccc(-c2ccc(Cl)cc2)nc1 | 8.10 | < 6.00 | pIC50 (Cytochrome P450 2D6): > 7.00; CL (Liver microsomes [2]): < 1 mL/min/g; CL (Liver microsomes [3]): < 1 mL/min/g |
| CC(C)COc1ccc(S(=O)(=O)Cc2ccc3c(c2)CCNCC3)cn1 | 7.40 | < 6.00 | – |
| Cc1ccc(S(=O)(=O)Nc2ccc3c(c2)CCN(Cc2cc[nH]n2)CC3)cc1Cl | – | – | Intrinsic activity [4]: 0.7 |
| O=S(=O)(Cc1ccc2c(c1)CCNCC2)c1ccc2ccccc2c1 | 5.90 | < 5.00 | – |
| O=S(=O)(Cc1ccc2c(c1)CCNCC2)c1ccc(Nc2ccc(F)cc2)nc1 | 7.70 | < 6.00 | pIC50 (Cytochrome P450 2D6): 6.52; CL (Liver microsomes [2]): < 1 mL/min/g; CL (Liver microsomes [3]): < 0.5 mL/min/g |
| O=C(Nc1ccc(F)cc1)c1ccc(S(=O)(=O)Cc2ccc3c(c2)CCNCC3)cn1 | 5.70 | – | – |
| O=S(=O)(Nc1ccc2c(c1)CCNCC2)c1ccc(N2CCOCC2)nc1 | 5.80 | – | – |
| CC(C)(C)c1ccc(S(=O)(=O)Cc2ccc3c(c2)CCNCC3)cc1 | 5.50 | < 5.00 | – |
| CN(Cc1ccc2c(c1)CCNCC2)C(=O)c1ccc(N2CCOCC2)nc1 | < 4.90 | – | – |
| O=S(=O)(Cc1ccc2c(c1)CCNCC2)c1ccc(N2CCOCC2)nc1 | 6.30 | < 6.00 | pIC50 (Cytochrome P450 2D6): 4.80; CL (Liver microsomes [2]): < 0.5 mL/min/g; CL (Liver microsomes [3]): < 1 mL/min/g |
| O=S(=O)(Cc1ccc2c(c1)CCNCC2)c1ccc(N2CCCCC2)nc1 | 7.20 | < 6.00 | pIC50 (Cytochrome P450 2D6): 5.96 |
| CCCCc1ccc(S(=O)(=O)Nc2ccc3c(c2)CCN(C2CCN(C)CC2)CC3)cc1 | < 4.90 | – | – |
| O=S(=O)(Cc1ccc2c(c1)CCNCC2)c1ccc(-c2ccc(F)c(F)c2)cc1 | 7.60 | < 6.00 | pIC50 (Cytochrome P450 2D6): 7.00; CL (Liver microsomes [2]): 1 mL/min/g; CL (Liver microsomes [3]): 1.1 mL/min/g |
| CCCCc1ccc(S(=O)(=O)Nc2ccc3c(c2)CCN(Cc2cc[nH]n2)CC3)cc1 | – | – | Intrinsic activity [4]: 0.7; Emax at 1 µM (Stomach): 47% |
| O=S(=O)(Cc1ccc2c(c1)CCNCC2)c1ccc(Oc2ccc(F)cc2)nc1 | 6.30 | < 6.00 | pIC50 (Cytochrome P450 2D6): 5.77 |
| CCCCc1ccc(S(=O)(=O)Cc2ccc3c(c2)CCNCC3)cc1 | 6.90 | – | – |
| CCCCc1ccc(S(=O)(=O)Nc2ccc3c(c2)CCN(C2CCN(C(C)=O)CC2)CC3)cc1 | < 5.60 | – | – |
| O=C(Nc1ccc2c(c1)CCNCC2)c1ccc(N2CCOCC2)nc1 | < 4.90 | – | – |
| O=S(=O)(Cc1ccc2c(c1)CCNCC2)c1ccccc1 | < 4.90 | < 5.00 | – |
| CN(C(=O)c1ccc(N2CCOCC2)nc1)c1ccc2c(c1)CCNCC2 | < 4.90 | – | – |
| O=S(=O)(Cc1ccc2c(c1)CCNCC2)c1ccc(-c2ccc(Cl)cc2)cc1 | 7.70 | < 5.00 | pIC50 (Cytochrome P450 2D6): > 7.00; CL (Liver microsomes [2]): < 1 mL/min/g; CL (Liver microsomes [3]): < 0.5 mL/min/g |
| O=C(Nc1ccc(N2CCOCC2)nc1)c1ccc2c(c1)CCNCC2 | < 4.90 | – | – |
| CCCCc1ccc(S(=O)(=O)N(C)c2ccc3c(c2)CCNCC3)cc1 | 5.60 | – | – |
| O=S(=O)(Cc1ccc2c(c1)CCNCC2)c1ccc(-c2ccc(F)cc2)nc1 | 8.30 | < 6.00 | pIC50 (Cytochrome P450 2D6): 6.22; CL (Liver microsomes [2]): < 1 mL/min/g; CL (Liver microsomes [3]): < 0.5 mL/min/g; Emax at 1 µM (Stomach): 54% |
| N#Cc1ccc(-c2ccc(S(=O)(=O)Cc3ccc4c(c3)CCNCC4)cn2)cc1 | 6.80 | < 6.00 | – |
| CC(C)Oc1ccc(S(=O)(=O)Cc2ccc3c(c2)CCNCC3)cn1 | 6.80 | < 6.00 | pIC50 (Cytochrome P450 2D6): 5.80 |
| O=S(=O)(Nc1ccc(N2CCOCC2)nc1)c1ccc2c(c1)CCNCC2 | 5.60 | – | – |

Continued, in another order:

| pEC50 (Motilin receptor) | pEC50 [1] | Structure (SMILES) | other results |
| --- | --- | --- | --- |
| 5.50 | – | CCCCc1ccc(S(=O)(=O)Nc2ccc3c(c2)CCN(Cc2cncn2C)CC3)cc1 | – |
| 5.60 | < 6.00 | CCCCc1ccc(S(=O)(=O)Nc2ccc3c(c2)CCN(Cc2cccs2)CC3)cc1 | – |
| 5.80 | – | CCCCc1ccc(S(=O)(=O)Nc2ccc3c(c2)CCNCC3)cc1 | – |
| < 4.90 | – | CC(C)S(=O)(=O)Nc1ccc2c(c1)CCN(Cc1ccn[nH]1)CC2 | pIC50 (Cytochrome P450 2D6): 4.80 |
| 5.70 | < 6.00 | CCCCc1ccc(S(=O)(=O)Nc2ccc3c(c2)CCN(CC2CCOC2)CC3)cc1 (centres undefined) | – |
| 7.20 | 7.70 | CCCCc1ccc(S(=O)(=O)Nc2ccc3c(c2)CCN(Cc2cnc(C)[nH]2)CC3)cc1 | Intrinsic activity [4]: 0.5 |
| 5.10 | – | N#Cc1ccc(S(=O)(=O)Nc2ccc3c(c2)CCN(Cc2cc[nH]n2)CC3)cc1 | pIC50 (Cytochrome P450 2D6): 5.10; pIC50 (Cytochrome P450 2C9): 5.60 |
| 5.60 | < 6.00 | O=S(=O)(Cc1ccccc1)Nc1ccc2c(c1)CCN(Cc1ccn[nH]1)CC2 | – |
| 8.00 | 5.80 | O=S(=O)(Nc1ccc2c(c1)CCN(Cc1cc[nH]n1)CC2)c1ccc(-c2ccccc2)cc1 | Intrinsic activity [4]: 0.7; pKi (D(3) dopamine receptor): 7.50; pIC50 (Cytochrome P450 2D6): > 7.00; pKi (D(2) dopamine receptor): 6.20; pIC50 (Cytochrome P450 3A4 [5]): > 7.00; pKi [6]: 6.90; pIC50 (Cytochrome P450 3A4 [7]): > 7.00 |
| 7.50 | < 5.00 | CN1CCOc2cc(S(=O)(=O)Nc3ccc4c(c3)CCN(Cc3cc[nH]n3)CC4)ccc21 | pKi (D(3) dopamine receptor): 6.20; pKi (D(2) dopamine receptor): < 6.00; pKi [6]: 7.80 |
| 6.70 | < 6.00 | CCCCc1ccc(S(=O)(=O)Nc2ccc3c(c2)CCN(C2CCCC2)CC3)cc1 | – |
| 8.40 | 6.80 | CC(C)Oc1ccc(S(=O)(=O)Nc2ccc3c(c2)CCN(Cc2cc[nH]n2)CC3)cc1 | Intrinsic activity [4]: 0.6; pKi (D(3) dopamine receptor): 7.70; pIC50 (Cytochrome P450 2D6): 5.89; pKi (D(2) dopamine receptor): 6.20; pKi [6]: 6.70 |
| 6.30 | < 5.00 | CCCCc1ccc(S(=O)(=O)Nc2ccc3c(c2)CCN(Cc2cccc(NC(C)=O)c2)CC3)cc1 | – |
| 6.10 | < 5.00 | O=S(=O)(Nc1ccc2c(c1)CCN(Cc1cc[nH]n1)CC2)c1ccc(Cl)cc1 | – |
| 8.10 | 8.40 | CCCCc1ccc(S(=O)(=O)Nc2ccc3c(c2)CCN(Cc2cnc[nH]2)CC3)cc1 | Intrinsic activity [4]: 0.4 |
| 8.30 | 6.20 | CC1(C)CCc2cc(S(=O)(=O)Nc3ccc4c(c3)CCN(Cc3cc[nH]n3)CC4)ccc2O1 | pIC50 (Cytochrome P450 2D6): 6.30 |
| 7.30 | < 6.00 | CCCCc1ccc(S(=O)(=O)Nc2ccc3c(c2)CCN(Cc2ccc(NC(C)=O)s2)CC3)cc1 | – |
| < 5.50 | – | CCCCc1ccc(S(=O)(=O)Nc2ccc3c(c2)CCN(Cc2ccccc2)CC3)cc1 | – |
| 7.40 | 7.10 | Cc1ccc(S(=O)(=O)Nc2ccc3c(c2)CCN(Cc2ccn[nH]2)CC3)cc1Cl | pKi (D(3) dopamine receptor): 7.00; pKi (D(2) dopamine receptor): 6.40; pKi [6]: 8.20 |
| 8.50 | 8.40 | CCCCc1ccc(S(=O)(=O)Nc2ccc3c(c2)CCN(Cc2[nH]cnc2C)CC3)cc1 | Intrinsic activity [4]: 0.6 |
